Columns and labels:
SMYD3 [1] = biological target: T1, SMYD3 (Homo sapiens (Human), UniProt Q9H7B4); assay: SMYD3 biochemical assay (SPA, 3H-SAM methylation of MEKK2 protein substrate); details: read-out: SMYD3 Biochem IC50 (μM)*
How it was run: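 SPA methyltransferase format: tag-cleaved human SMYD3, insect-cell GST-MEKK2 protein substrate, 3H-SAM donor, 30 min RT enzyme–compound preincubation, 100 uM cold SAM quench.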

SMYD3 [2] = biological target: T1, SMYD3; assay: SMYD3 cell assay (Trimethyl-MEKK2 In-Cell Western in 293T/17 cells); assay type: cell-based; details: read-out: SMYD3 Cell IC50 (μM)*
How it was run: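 In-Cell Western readout: methanol-fixed cells stained for trimethyl-MEKK2 and flag tag, ratio per well normalized to DMSO and background controls.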

T1 sequence (Q9H7B4 whole entry): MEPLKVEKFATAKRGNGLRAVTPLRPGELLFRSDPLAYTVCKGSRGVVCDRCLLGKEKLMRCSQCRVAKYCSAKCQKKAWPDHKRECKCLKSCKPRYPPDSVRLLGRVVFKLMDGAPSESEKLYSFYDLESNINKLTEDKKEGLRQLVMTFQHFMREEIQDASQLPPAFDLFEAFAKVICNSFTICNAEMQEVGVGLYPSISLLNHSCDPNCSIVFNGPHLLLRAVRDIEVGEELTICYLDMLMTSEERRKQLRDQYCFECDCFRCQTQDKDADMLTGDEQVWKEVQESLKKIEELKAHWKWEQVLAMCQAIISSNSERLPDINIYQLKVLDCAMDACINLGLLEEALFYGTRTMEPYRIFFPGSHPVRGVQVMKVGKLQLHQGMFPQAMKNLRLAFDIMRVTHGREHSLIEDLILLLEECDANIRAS

IC50 (SMYD3 [1]) [µM]	IC50 (SMYD3 [2]) [µM]	IC50 (SMYD3 [2]; 293T/17 cells) [µM]	Structure (SMILES)
0.208	1.35		C[C@@H]1CC(NC(=O)c2cc(C3CC3)on2)CCN1C(=O)[C@H]1CC[C@H](N)CO1 (stereo partly drawn) [compound 118, N-((2R)-1-((2R,5S)-5-aminotetrahydro-2H-pyran-2-carbonyl)-2-methylpiperidin-4-yl)-5-cyclopropylisoxazole-3-carboxamide]
0.274	2.24		CN[C@H]1CC[C@H](C(=O)N2CCC(NC(=O)c3cc(C4CC4)on3)C[C@H]2C)CC1 (stereo partly drawn) [compound 124, 5-cyclopropyl-N-((2R)-2-methyl-1-((1r,4R)-4-(methylamino)cyclohexane-1-carbonyl)piperidin-4-yl)isoxazole-3-carboxamide]
0.282	1.81		C[C@@H]1CN(C(=O)[C@H]2CC[C@H](N)CC2)CC[C@@H]1NC(=O)c1cc(C2CC2)on1 [compound 148, N-((3R,4S)-1-((1r,4R)-4-aminocyclohexane-1-carbonyl)-3-methylpiperidin-4-yl)-5-cyclopropylisoxazole-3-carboxamide]
0.291	3.22		C[C@@H]1CN(C(=O)CC2CCNCC2)CC[C@@H]1NC(=O)c1cc(C2CC2)on1 [compound 149, 5-cyclopropyl-N-((3R,4S)-3-methyl-1-(2-(piperidin-4-yl)acetyl)piperidin-4-yl)isoxazole-3-carboxamide]
0.245	1.76		NC1CCC(C(=O)N2CCC(NC(=O)c3cc(C4CC4)on3)C3(CC3)C2)CC1 (centres unmarked) [compound 156, N-(5-((1r,4r)-4-aminocyclohexane-1-carbonyl)-5-azaspiro[2.5]octan-8-yl)-5-cyclopropylisoxazole-3-carboxamide]
0.274	0.983		C[C@@H]1CC(NC(=O)c2cc(C3CC3)on2)CCN1C(=O)C1CC2(CC(N)C2)C1 (stereo partly drawn) [compound 175, N-((2R)-1-(6-aminospiro[3.3]heptane-2-carbonyl)-2-methylpiperidin-4-yl)-5-cyclopropylisoxazole-3-carboxamide]
0.00409	0.831		C[C@H]1C[C@@H](NC(=O)c2cc(C3CC3)on2)CCN1S(=O)(=O)CCCN [compound 187]
0.0559	1.24		C[C@@H]1C[C@H](NC(=O)c2cc(C3CC3)on2)CCN1S(=O)(=O)CCCN [compound 189, N-((2R,4R)-1-((3-aminopropyl)sulfonyl)-2-methylpiperidin-4-yl)-5-cyclopropylisoxazole-3-carboxamide]
0.142	1.31		C[C@@H]1CC(NC(=O)c2cc(C3CC3)on2)CCN1C(=O)C12C3C4C1C1C2C3C41N (stereo partly drawn) [compound 202, N-((2R)-1-(4-aminocubane-1-carbonyl)-2-methylpiperidin-4-yl)-5-cyclopropylisoxazole-3-carboxamide]
0.321	2.9		NCCCS(=O)(=O)N1CCC(NC(=O)c2cc(C3CC3)on2)CC1 [compound 210, N-(1-((3-aminopropyl)sulfonyl)piperidin-4-yl)-5-cyclopropylisoxazole-3-carboxamide]
0.23	1.42		CC1(NC(=O)c2cc(C3CC3)on2)CCN(S(=O)(=O)CCCN)CC1 [compound 218, N-(1-((3-aminopropyl)sulfonyl)-4-methylpiperidin-4-yl)-5-cyclopropylisoxazole-3-carboxamide]
> 10	> 40		CC1CC(NC(=O)c2cc(C3CC3)on2)CCN1C(=O)Cc1c[nH]cn1 (centres unmarked) [compound 227, N-(1-(2-(1H-imidazol-4-yl)acetyl)-2-methylpiperidin-4-yl)-5-cyclopropylisoxazole-3-carboxamide]
> 10	14.1		C[C@H]1C[C@H](NC(=O)c2cc(C3CC3)on2)CCN1S(=O)(=O)Cc1ccccc1 [compound 244, N-((2S,4R)-1-(benzylsulfonyl)-2-methylpiperidin-4-yl)-5-cyclopropylisoxazole-3-carboxamide]
0.0322		0.569	CC1CN(C(=O)[C@H]2CC[C@H](N)CC2)C(C)CC1NC(=O)c1cc(C2CC2)on1 (some centres unmarked) [compound 263, N-(1-((1r,4r)-4-aminocyclohexane-1-carbonyl)-2,5-dimethylpiperidin-4-yl)-5-cyclopropylisoxazole-3-carboxamide]
5.45		> 40	NCCCC(=O)N1CC2CCC1CC2NC(=O)c1cc(C2CC2)on1 (centres unmarked) [compound 265, N-(2-(4-aminobutanoyl)-2-azabicyclo[2.2.2]octan-5-yl)-5-cyclopropylisoxazole-3-carboxamide]
> 10		> 40	C[C@H]1C[C@@H](NC(=O)c2cc(C3CC3)on2)CCN1C(=O)CC(CN)Cc1ccccc1 (stereo partly drawn) [compound 269, N-((2S,4S)-1-(4-amino-3-benzylbutanoyl)-2-methylpiperidin-4-yl)-5-cyclopropylisoxazole-3-carboxamide]
> 10		> 40	C[C@@H]1C[C@@H](NC(=O)c2cc(C3CC3)on2)CCN1C(=O)CC(CN)Cc1ccccc1 (stereo partly drawn) [compound 270, N-((2R,4S)-1-(4-amino-3-benzylbutanoyl)-2-methylpiperidin-4-yl)-5-cyclopropylisoxazole-3-carboxamide]
> 10		> 40	C[C@H]1C[C@H](NC(=O)c2cc(C3CC3)on2)CCN1C(=O)CC(CN)Cc1ccccc1 (stereo partly drawn) [compound 271, N-((2S,4R)-1-(4-amino-3-benzylbutanoyl)-2-methylpiperidin-4-yl)-5-cyclopropylisoxazole-3-carboxamide]
> 10		> 40	C[C@@H]1C[C@H](NC(=O)c2cc(C3CC3)on2)CCN1C(=O)CC(CN)Cc1ccccc1 (stereo partly drawn) [compound 272, N-((2R,4R)-1-(4-amino-3-benzylbutanoyl)-2-methylpiperidin-4-yl)-5-cyclopropylisoxazole-3-carboxamide]
0.433		1.42	C[C@H]1C[C@@H](NC(=O)c2cc(C3CC3)on2)CCN1S(=O)(=O)Cc1ccccc1 [compound 274, N-((2S,4S)-1-(benzylsulfonyl)-2-methylpiperidin-4-yl)-5-cyclopropylisoxazole-3-carboxamide]
0.154		0.676	C[C@H]1C[C@@H](NC(=O)c2cc(C3CC3)on2)CCN1S(=O)(=O)c1ccccn1 [compound 275, 5-cyclopropyl-N-((2S,4S)-2-methyl-1-(pyridin-2-ylsulfonyl)piperidin-4-yl)isoxazole-3-carboxamide]
> 10		> 40	C[C@@H]1C[C@@H](NC(=O)c2cc(C3CC3)on2)CCN1S(=O)(=O)c1cn(C)cn1 [compound 283, 5-cyclopropyl-N-((2R,4S)-2-methyl-1-((1-methyl-1H-imidazol-4-yl)sulfonyl)piperidin-4-yl)isoxazole-3-carboxamide]
> 10		10.7	C[C@H]1C[C@H](NC(=O)c2cc(C3CC3)on2)CCN1S(=O)(=O)c1ccccn1 [compound 286, 5-cyclopropyl-N-((2S,4R)-2-methyl-1-(pyridin-2-ylsulfonyl)piperidin-4-yl)isoxazole-3-carboxamide]
> 10		> 40	C[C@H]1C[C@H](NC(=O)c2cc(C3CC3)on2)CCN1S(=O)(=O)c1cn(C)cn1 [compound 291, 5-cyclopropyl-N-((2S,4R)-2-methyl-1-((1-methyl-1H-imidazol-4-yl)sulfonyl)piperidin-4-yl)isoxazole-3-carboxamide]
4.84		7.19	C[C@@H]1C[C@H](NC(=O)c2cc(C3CC3)on2)CCN1S(=O)(=O)c1ccccn1 [compound 293, 5-cyclopropyl-N-((2R,4R)-2-methyl-1-(pyridin-2-ylsulfonyl)piperidin-4-yl)isoxazole-3-carboxamide]
> 10		> 40	C[C@@H]1C[C@H](NC(=O)c2cc(C3CC3)on2)CCN1S(=O)(=O)c1cn(C)cn1 [compound 294, 5-cyclopropyl-N-((2R,4R)-2-methyl-1-((1-methyl-1H-imidazol-4-yl)sulfonyl)piperidin-4-yl)isoxazole-3-carboxamide]
1.18		16.8	N[C@H]1CC[C@H](C(=O)N2CC[C@@H](NC(=O)c3cc(C4CC4)on3)C[C@H]2Cc2ccccc2)CC1 [compound 309, N-((2R,4R)-1-((1r,4R)-4-aminocyclohexane-1-carbonyl)-2-benzylpiperidin-4-yl)-5-cyclopropylisoxazole-3-carboxamide]
0.733		8.1	N[C@H]1CC[C@H](C(=O)N2CC[C@H](NC(=O)c3cc(C4CC4)on3)C[C@@H]2Cc2ccccc2)CC1 [compound 310, N-((2S,4S)-1-((1r,4S)-4-aminocyclohexane-1-carbonyl)-2-benzylpiperidin-4-yl)-5-cyclopropylisoxazole-3-carboxamide]
4.73		> 40	C[C@@H]1C[C@H](NC(=O)c2cc(C3CC3)on2)CCN1C(=O)CC(CN)c1ccccc1 (stereo partly drawn) [compound 314, N-((2R,4R)-1-(4-amino-3-phenylbutanoyl)-2-methylpiperidin-4-yl)-5-cyclopropylisoxazole-3-carboxamide]

Structure (SMILES)	IC50 (SMYD3 [1]) [µM]	IC50 (SMYD3 [2]) [µM]	IC50 (SMYD3 [2]; 293T/17 cells) [µM]
C[C@H]1C[C@@H](NC(=O)c2cc(C3CC3)on2)CCN1S(=O)(=O)CCc1ccccc1 [compound 235, 5-cyclopropyl-N-((2S,4S)-2-methyl-1-(phenethylsulfonyl)piperidin-4-yl)isoxazole-3-carboxamide]	1.33	3.3	
C[C@@H]1C[C@H](NC(=O)c2cc(C3CC3)on2)CCN1S(=O)(=O)CCc1ccccc1 [compound 295, 5-cyclopropyl-N-((2R,4R)-2-methyl-1-(phenethylsulfonyl)piperidin-4-yl)isoxazole-3-carboxamide]	> 10		> 40

— patent US10577363B2, “Substituted piperidine compounds” (EPIZYME, INC., priority 2014, dated 2020)
